This is an account of results in patent US20190380964A1, “METHODS AND COMPOSITIONS FOR MAKING AND USING NANOTHERAPEUTIC DRUG DELIVERY VEHICLES” (GEORGE MASON UNIVERSITY, priority 2018, published 2019).

Test [1] deals with MDA-MB-231 cells. In words: WST-1 proliferation / viability of MDA-MB-231 cells exposed to targeted DXR liposomes. The class given is cell-based. Conditions: 8 or 24 hours exposure, evaluated over 3 days. The procedure: In an alternate embodiment, MDA-MB-231 cells were grown in DMEM containing 10% FBS and 1× Penicillin-Streptomycin solution. The cells were cultured at 70% confluence and plated in a 96 well plate at a density of 5×10^4 cells/well. The cells were incubated undisturbed for two days prior to any experimentation. Liposomal suspensions were UV sterilized prior to introduction to cell cultures. On the second day, the liposomal carriers containing DXR were introduced to the cultures at the EC-50 of DXR (0.01 μM21). Proliferating cells were quantified and normalized by the control using WST-1 proliferation assay.
Liposomes were incubated with DXR (17.2 mM) and DSPE-PEG-MAL (0.1 mol %) for 1 hour. The suspension was then purified using spin columns and incubated overnight with CD44 antibodies as described in the methods. Targeted liposomes were introduced to cultures of MDA-MB-231 cells and allowed to interact for 8 hours or 24 hours prior to being washed. […] Viability was analyzed over 72 hours using WST-1 as an indicator of proliferation and normalized to a media only control (e.g., as is illustrated in FIG. 8D).
Background: Tetrazolium assays rely on reduction of a dye to a coloured formazan, in cell work by metabolically active cells.

Test [2] has as its system MDA-MB-231 cells. The note with it: concentration at which DXR liposomal carriers were introduced; read-out: EC-50 of DXR; cited from earlier work.

Molecules are shown by their SMILES.

`COc1cccc2c1C(=O)c1c(O)c3c(c(O)c1C2=O)C[C@@](O)(C(=O)CO)C[C@@H]3O[C@H]1C[C@H](N)[C@H](O)[C@H](C)O1` [DXR, doxorubicin]: the “cancer cell viability (result in words, FIG. 8D)” value in test [1] is reported as “demonstrated efficacy in reducing cancer cell viability”. For the same compound, the EC50 in test [2] was 10 nM.
